Where a name gives a salt, the structure may show the parent alone.

T1 sequence (O14842 whole entry): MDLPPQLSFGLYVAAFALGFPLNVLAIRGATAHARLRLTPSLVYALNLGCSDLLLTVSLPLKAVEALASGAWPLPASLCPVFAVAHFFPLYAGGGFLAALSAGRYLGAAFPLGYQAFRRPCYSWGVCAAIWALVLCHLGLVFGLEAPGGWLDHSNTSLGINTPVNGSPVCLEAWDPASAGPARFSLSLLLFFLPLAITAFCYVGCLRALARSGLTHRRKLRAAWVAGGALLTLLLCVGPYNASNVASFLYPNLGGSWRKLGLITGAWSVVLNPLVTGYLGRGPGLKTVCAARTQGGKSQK

The first experiment has as its target T1, human-derived GPR40 (Homo sapiens, UniProt O14842).
T1 construct: expressed in transfected cells
The experiment is described as follows: Receptor function modulating action (agonist action) on human-derived GPR40: variation in intracellular calcium concentration in CHO cells (FLIPR or Cell Lux). The experiment is classed as cell-based. To be noted: each compound at 1 μM; relative to activity of 10 μM γ-linolenic acid = 100%; CHO cell line stably expressing human-derived GPR40; FLIPR for Examples 2, 6, 8, 10, 11, 13, Cell Lux for Examples 19-34. On the procedure:
A CHO cell line stably expressing human-derived GPR40 was used for determining the agonist activity. […] One day before the assay, the cells cultured to near confluence were rinsed with PBS (Invitrogen), detached using 0.5 mM EDTA (Wako Pure Chemical Industries, Ltd.) and recovered by centrifugation. The obtained cells were counted and diluted to 3×10^5 cells per 1 mL medium. The cells were dispensed to a 96-well black clear bottom plate (Coster) by 100 μL per well and cultured overnight in a CO2 incubator. To the CHO cells prepared in this manner were added various test compounds, and variation in the intracellular calcium concentration was measured using FLIPR (Molecular Device) or Cell Lux (PerkinElmer). For measurement of variation in the intracellular calcium concentration using FLIPR or Cell Lux, the following pretreatment was performed. […] Then, a fluorescence dye solution was dispensed by 100 μL per well, and the cells were cultured in a CO2 incubator for 1 hr to allow intake of the fluorescence dye. During this time, the test compound was diluted to a given concentration with the assay buffer, and dispensed to a polypropylene 96-well plate (sample plate) by 100 μL. The cell plate and the sample plate were simultaneously set in the FLIPR or Cell Lux. After the foregoing pretreatment, variation in the intracellular calcium concentration after addition of 50 μL of various test compounds was measured using FLIPR or Cell Lux.
Turning to `Cc1cc(OC2CCS(=O)(=O)CC2)cc(C)c1-c1cccc(COc2ccc3c(c2)OC[C@H]3CC(=O)O)c1` [Example 2, [(3S)-6-({4′-[(1,1-dioxidotetrahydro-2H-thiopyran-4-yl)oxy]-2′,6′-dimethylbiphenyl-3-yl}methoxy)-2,3-dihydro-1-benzofuran-3-yl]acetic acid], the activation at 1 µM turned out to be 107%. The same measure, in the same setting: then `Cc1cc(OCC2(O)CCS(=O)(=O)CC2)cc(C)c1-c1cccc(COc2ccc3c(c2)OC[C@H]3CC(=O)O)c1` [Example 6, [(3S)-6-({4′-[(4-hydroxy-1,1-dioxidotetrahydro-2H-thiopyran-4-yl)methoxy]-2′,6′-dimethylbiphenyl-3-yl}methoxy)-2,3-dihydro-1-benzofuran-3-yl]acetic acid], with 102%; and `Cc1c(C)c(-c2cccc(COc3ccc4c(c3)OC[C@H]4CC(=O)O)c2)c(C)c(C)c1OCCCS(C)(=O)=O` [Example 8, [(3S)-6-({2′,3′,5′,6′-tetrameramethyl-4′-[3-(methylsulfonyl)propoxy]biphenyl-3-yl}methoxy)-2,3-dihydro-1-benzofuran-3-yl]acetic acid], with 112%. Take `Cc1cc(OCCCS(C)(=O)=O)cc(C)c1-c1cccc(COc2ccc3c(c2)OC[C@H]3CC(=O)O)c1` [Example 10, [(3S)-6-({2′,6′-dimethyl-4′-[3-(methylsulfonyl)propoxy]biphenyl-3-yl}methoxy)-2,3-dihydro-1-benzofuran-3-yl]acetic acid]: the Relative activity value is 114%. Regarding `CCS(=O)(=O)CCOc1cc(C)c(-c2cccc(COc3ccc4c(c3)OC[C@H]4CC(=O)O)c2)c(C)c1` [Example 11, [(3S)-6-({4′-[2-(ethylsulfonyl)ethoxy]-2′,6′-dimethylbiphenyl-3-yl}methoxy)-2,3-dihydro-1-benzofuran-3-yl]acetic acid], the activation at 1 µM was determined as 120%.

Turning to `Cc1cc(OCCCS(C)(=O)=O)c(F)c(C)c1-c1cccc(COc2ccc3c(c2)OC[C@H]3CC(=O)O)c1` [Example 13, [(3S)-6-({3′-fluoro-2′,6′-dimethyl-4′-[3-(methylsulfonyl)propoxy]biphenyl-3-yl}methoxy)-2,3-dihydro-1-benzofuran-3-yl]acetic acid], the activation at 1 µM turned out to be 125%. The same measure, in the same setting: then `Cc1cc(OCCCS(C)(=O)=O)cc(CO)c1-c1cccc(COc2ccc3c(c2)OC[C@H]3CC(=O)O)c1` [Example 19, [(3S)-6-({2′-(hydroxymethyl)-6′-methyl-4′-[3-(methylsulfonyl)propoxy]biphenyl-3-yl}methoxy)-2,3-dihydro-1-benzofuran-3-yl]acetic acid], with 118%. The same measure, in the same setting: then `Cc1cc(OCCCS(C)(=O)=O)c(Cl)c(C)c1-c1cccc(COc2ccc3c(c2)OC[C@H]3CC(=O)O)c1` [Example 22, [(3S)-6-({3′-chloro-2′,6′-dimethyl-4′-[3-(methylsulfonyl)propoxy]biphenyl-3-yl}methoxy)-2,3-dihydro-1-benzofuran-3-yl]acetic acid], with 121%. Same read-out and setting: then `Cc1c(Cl)c(OCCCS(C)(=O)=O)c(Cl)c(C)c1-c1cccc(COc2ccc3c(c2)OC[C@H]3CC(=O)O)c1` [Example 24, [(3S)-6-({3′,5′-dichloro-2′,6′-dimethyl-4′-[3-(methylsulfonyl)propoxy]biphenyl-3-yl}methoxy)-2,3-dihydro-1-benzofuran-3-yl]acetic acid], with 96%; and `CCc1cc(OCCCS(C)(=O)=O)cc(CC)c1-c1cccc(COc2ccc3c(c2)OC[C@H]3CC(=O)O)c1` [Example 26, [(3S)-6-({2′,6′-diethyl-4′-[3-(methylsulfonyl)propoxy]biphenyl-3-yl}methoxy)-2,3-dihydro-1-benzofuran-3-yl]acetic acid], with 101%. Regarding `CCc1c(Cl)c(OCCCS(C)(=O)=O)c(Cl)c(CC)c1-c1cccc(COc2ccc3c(c2)OC[C@H]3CC(=O)O)c1` [Example 28, [(3S)-6-({3′,5′-dichloro-2′,6′-diethyl-4′-[3-(methylsulfonyl)propoxy]biphenyl-3-yl}methoxy)-2,3-dihydro-1-benzofuran-3-yl]acetic acid], the activation at 1 µM was 92%. For `Cc1cc(OCCCS(C)(=O)=O)cc(C)c1-c1cc(COc2ccc3c(c2)OC[C@H]3CC(=O)O)ccc1Oc1ccccc1` [Example 30, [(3S)-6-({2′,6′-dimethyl-4′-[3-(methylsulfonyl)propoxy]-6-phenoxybiphenyl-3-yl}methoxy)-2,3-dihydro-1-benzofuran-3-yl]acetic acid 0.5 calcium salt], the activation at 1 µM was found to be 108%. As for `Cc1cc(OCCCS(C)(=O)=O)cc(C)c1-c1cc(COc2ccc3c(c2)OC[C@H]3CC(=O)O)ccc1COc1ccccc1` [Example 32, [(3S)-6-({2′,6′-dimethyl-4′-[3-(methylsulfonyl)propoxy]-6-(phenoxymethyl)biphenyl-3-yl}methoxy)-2,3-dihydro-1-benzofuran-3-yl]acetic acid], the activation at 1 µM came out at 104%. Take `Cc1cc(OCCCS(C)(=O)=O)cc(C)c1-c1cc(COc2ccc3c(c2)OC[C@H]3CC(=O)O)c(F)cc1OCc1ccccc1` [Example 34, [(3S)-6-({6-(benzyloxy)-4-fluoro-2′,6′-dimethyl-4′-[3-(methylsulfonyl)propoxy]biphenyl-3-yl}methoxy)-2,3-dihydro-1-benzofuran-3-yl]acetic acid]: the activation at 1 µM came out at 119%.

The experiment is the same for the next values; noted with them: each compound at 1 μM; relative to activity of 10 μM γ-linolenic acid = 100%; CHO cell line stably expressing human-derived GPR40; FLIPR for Examples 2, 6, 8, 10, 11, 13, Cell Lux for Examples 19-34; hydrate.
Regarding `Cc1cc(OCCCS(C)(=O)=O)cc(C)c1-c1cccc(COc2ccc3c(c2)OC[C@H]3CC(=O)O)c1` [Example 20, [(3S)-6-({2′,6′-dimethyl-4′-[3-(methylsulfonyl)propoxy]biphenyl-3-yl}methoxy)-2,3-dihydro-1-benzofuran-3-yl]acetic acid 0.5 hydrate], the Relative activity value was found to be 118%.

Staying with this experiment, now noted: reference agonist at 10 μM, its activity set as 100%; CHO cell line stably expressing human-derived GPR40.
For `CCCCC/C=C\C/C=C\C/C=C\CCCCC(=O)O` [γ-linoleic acid, γ-linolenic acid, reference compound], the Relative activity value came to 100%.

These data come from patent US8598226B2, “Fused cyclic compounds” (Takeda Pharmaceutical Company Limited, priority 2006, dated 2013).
